Experimental data from article PMC5449454, “Anti-Double-Stranded DNA IgG Participates in Renal Fibrosis through Suppressing the Suppressor of Cytokine Signaling 1 Signals” (Frontiers in Immunology, 2017).
Where no end group is shown, it is not given here.

Tests used:
MRL/lpr mice = details: ref [28]; cited from earlier work
Text: The JAK2/STAT1 pathway mediates the renal damage in lupus models induced by anti-dsDNA antibodies. […] Moreover, STAT1 deficiency in the lupus-like chronic graft-versus-host disease model led to a prolonged but amplified increase of anti-dsDNA IgG in sera and also higher proteinuria and mortality ([29]). This phenomenon might be du ...

anti-dsDNA IgG = assay: MALDI-TOF MS, catalysis of peptide by anti-dsDNA IgG; parameters: species or system murine; details: peptide 2 µg/ml with IgG (molar ratio = 1:5), 37°C, 30 min, triplicate
Procedure: Matrix-assisted laser desorption/ionization–time of flight mass spectrometry was performed for identifying the sequences of peptide fragments. As described previously ([36]), an ABI 4800 Analyzer (AB Science, Foster City, CA, USA) was used for such analysis. The ALW (L-form or D-form) and KIR peptides (2 µg/ml) were mixed with anti-dsDNA IgG or control IgG (molar ratio = 1:5), respectively. The mixtures were incubated at 37°C for 30 min. Then, these samples were diluted in distilled water (1:100) and then mixed with the α-cyano-4-hydroxycinnamic acid matrix at a ratio of 1:1. Samples in triplicate were then loaded to the MALDI target. Mass spectrum was produced on 80 individual spectra of each spot.

KIR peptide (SOCS1) = target: T1, KIR peptide (SOCS1) (Mus musculus, UniProt O35716); assay: Surface plasmon resonance, JAK2 loop peptide over immobilized biotinylated KIR peptide; assay type: binding; details: SPR, JAK2 loop peptide 0–250 nM
T1 construct: The KIR of SOCS1 was synthesized as a 16-mer peptide (2.09 kDa); purchased Sangon Biotech Company (Shanghai, China); host or cells: chemical synthesis
Procedure: The Biacore 3000 instrument (Biacore, Piscataway, NJ, USA) was used for the quantitation of binding affinities ([8], [35]). For anti-dsDNA IgG binding to KIR peptide, anti-dsDNA IgG (10 nM in MES buffer) was immobilized on a CM sensor chip (GE Healthcare, Port Washington, NY, USA), and then KIR peptide (0–250 nM in HEPES buffer) was run on chip. For JAK2 loop peptide binding to KIR peptide, the biotinylated KIR peptide (5 nM) was immobilized on streptavidin-coated sensor chip, followed by injection of JAK2 loop peptide (0–250 nM). A simple Langmuir model (A + B ↔ AB) was used for calculating binding kinetics.

[1] = target: T2, biotinylated SOCS1 kinase inhibitory region (KIR) peptide (also: biotinylated (position not given here)); assay: SPR; Biacore 3000; biotinylated KIR peptide (5 nM) immobilised on a streptavidin-coated sensor chip, JAK2 loop peptide injected at 0-250 nM; simple Langmuir model (A + B ↔ AB); details: both partners purified
T2 construct: Captured by its biotin on streptavidin-coated sensor chips and plates; An unbiotinylated KIR peptide was run over the immobilised anti-dsDNA IgG only; also called SOCS1-KIR; biotinylated KIR peptide; source: synthetic peptide (Sangon Biotech Company)
T2 peptide: DTHFRTFRSHSDYRRI

[2] = target: T2, biotinylated SOCS1 kinase inhibitory …; assay: ELISA; inhibition ELISA; biotinylated KIR peptide (5 µg/ml) on streptavidin-coated 96-well plates; FITC-labeled JAK2 loop peptide (0.2 µg/ml) pre-incubated with serially diluted anti-dsDNA IgG (0.02 to 20 µg/ml) or control IgG; fluorescein intensity read; details: both partners purified

Molecule: N#C/C(=C\c1ccc(O)c(O)c1)C(=O)NCc1ccccc1 [tyrphostin AG490]
- glomerular deposition of anti-dsDNA IgG (MRL/lpr mice): decrease
- phosphorylation of JAK2 (MRL/lpr mice): significantly inhibited
- phosphorylation of STAT1 (MRL/lpr mice): significantly inhibited
- proteinuria (MRL/lpr mice): decrease
- renal histological lesions (MRL/lpr mice): decrease
- serum titer of anti-dsDNA IgG (MRL/lpr mice): decrease

Molecule: DTHFRTFRSHSDYRRI [KIR peptide]
- catalysis of KIR peptide by anti-dsDNA IgG (anti-dsDNA IgG): almost catalyzed by anti-dsDNA IgG

Molecule: LPQDKEYYKVKEP [JAK2 loop peptide]
- Kd (KIR peptide (SOCS1); Biacore 3000, biotinylated KIR peptide (5 nM) immobilized on streptavidin chip, simple Langmuir model): 0.0446 µM
- kon (KIR peptide (SOCS1); biotinylated KIR peptide immobilized, Langmuir model, read-out: Ka (association rate)): 13500 M⁻¹ s⁻¹
- koff (KIR peptide (SOCS1); biotinylated KIR peptide immobilized, Langmuir model, read-out: Kd (dissociation rate)): 0.000603 s⁻¹

B1: JAK2 loop peptide (peptide)
peptide: LPQDKEYYKVKEP
notes: loop region of Janus kinase 2 (JAK2), 13-mer, 1.64 kDa; the SPR methods name the 'JAK2 loop peptide' without a label; source: synthetic peptide (Sangon Biotech Company)
- Kd [1]: 0.0446 µM
- koff [1]: 0.000603 s⁻¹
- kon [1]: 13500 M⁻¹ s⁻¹

B2: FITC-labeled JAK2 loop peptide (peptide)
peptide: LPQDKEYYKVKEP
modifications: also: FITC-labeled (position not given here)
notes: loop region of Janus kinase 2 (JAK2), 13-mer; also called FITC–JAK2 loop; FITC (0.39 kDa)–JAK2 loop; source: synthetic peptide (Sangon Biotech Company)
- binding result [2]: binds
